Reference: US6630472B1, “Compounds, pharmaceutical compositions, and methods for stimulating neuronal growth and elongation” (priority 1998, dated 2003)

Each compound was assayed against FKBP12 (Homo sapiens, UniProt P62942) (assay: rotamase inhibition assay (N-succinyl-Ala-Ala-Pro-Phe-p-nitroanilide, chymotrypsin-coupled)). Details: @ 2.5 μM.
Assay type: biochemical
Method: In the rotamase inhibition assay, isomerization of an artificial substrate N-succinyl-Ala-Ala-Pro-Phe-p-nitroanilide is followed spectrophotometrically. The assay includes the cis form of the substrate, FKBP12, the compound being tested, and chymotrypsin. Chymotrypsin is able to cleave p-nitroaniline from the trans form of the substrate, but not from the cis form. Release of p-nitroaniline is measured spectrophotometrically. Using this assay, various amounts of the FKBP rotamase-inhibiting compounds of formula (I-a) or (I-b) were added to cis-N-succinyl-alanine-alanine-proline-phenylalanine-para-nitroaniline (Bachem, 3132 Kashiwa Street, Torrance, Calif. 90505) in the presence of FKBP12 and chymotrypsin. Spectrophotometric measurements of p-nitroaniline concentrations allowed estimation of the apparent Ki values, which are provided in Table 1 below.

FKBP12, sequence (P62942 whole entry, species assumed): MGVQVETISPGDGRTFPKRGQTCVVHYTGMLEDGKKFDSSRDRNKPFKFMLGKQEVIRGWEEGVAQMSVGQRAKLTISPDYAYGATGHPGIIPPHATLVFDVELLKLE

| Compound | inhibition at 2.5 µM |
| --- | --- |
| CCCC(CCC)C(=O)OC[C@@H](CN1CC2CCCC(C1=O)N2C(=O)C(=O)C(C)(C)CC)OCc1ccccc1 (some centres unmarked) [Compound 55] | 40% |
| CCCC(CCC)C(=O)OC[C@H](CN1CC2CCCC(C1=O)N2C(=O)C(=O)C(C)(C)CC)OCc1ccccc1 (some centres unmarked) [Compound 56] | 40% |

Same assay, conditions: apparent Ki; NI = no inhibition at the concentrations tested; read-out: Rotamase Ki(app)

| Compound | Ki |
| --- | --- |
| COc1cc(C(=O)C(=O)N2C3CCCC2C(=O)N(CCOCc2ccccc2)C3)cc(OC)c1OC (centres unmarked) [Compound 7] | 160 nM |
| COc1cccc2c1CCN1C(=O)C3CCCC(C21)N3C(=O)C(=O)c1cc(OC)c(OC)c(OC)c1 (centres unmarked) [Compound 12] | 27 nM |
| COc1cc(C(=O)C(=O)N2C3CCCC2C(=O)N(CCCCc2ccccc2)C3)cc(OC)c1OC (centres unmarked) [Compound 33] | 227 nM |
| COc1cc(C(=O)C(=O)N2C3CCCC2C(=O)N(Cc2ccccc2)C3=O)cc(OC)c1OC [Compound 34] | 206 nM |
| COc1cc(C(=O)C(=O)N2C3CCCC2C(=O)N(CCCCc2ccccc2)C3=O)cc(OC)c1OC [Compound 35] | 73 nM |
| CCC(C)(C)C(=O)C(=O)N1C2CCCC1C(=O)N(CCCCc1ccccc1)C2=O [Compound 36] | 445 nM |
| COc1cc(C(=O)C(=O)N2C3CCCC2C(OC)N(CCCCc2ccccc2)C3=O)cc(OC)c1OC (centres unmarked) [Compound 37] | 222 nM |
| COc1cc(C(=O)C(=O)N2C3CCCC2C(=O)N(CCCCCc2ccccc2)C3=O)cc(OC)c1OC [Compound 38] | 298 nM |
| O=C1C2CCCC(CN1CCOCc1ccccc1)N2C(=O)C(=O)C12CC3CC(CC(C3)C1)C2 (centres unmarked) [Compound 40] | 690 nM |
| COc1cc(C(=O)C(=O)N2C3CCCC2C(=O)N(C2CCCC2)C3=O)cc(OC)c1OC [Compound 41] | 5800 nM |
| COc1cc(C(=O)C(=O)N2C3CCCC2C2OCC(COCc4ccccc4)N2C3=O)cc(OC)c1OC (centres unmarked) [Compound 42] | 2200 nM |
| COc1cc(C(=O)C(=O)N2C3CCCC2C(=O)N(C2CCCCC2)C3)cc(OC)c1OC (centres unmarked) [Compound 44] | 3000 nM |
| COc1cc(C(=O)C(=O)N2C3CCCC2C(=O)N(C[C@H](CO)OCc2ccccc2)C3)cc(OC)c1OC (some centres unmarked) [Compound 45] | 580 nM |
| CCCC(CCC)C(=O)OC[C@@H](CN1CC2CCCC(C1=O)N2C(=O)C(=O)c1cc(OC)c(OC)c(OC)c1)OCc1ccccc1 (some centres unmarked) [Compound 46] | 448 nM |
| CCCC(CCC)C(=O)OC[C@H](CN1CC2CCCC(C1=O)N2C(=O)C(=O)c1cc(OC)c(OC)c(OC)c1)OCc1ccccc1 (some centres unmarked) [Compound 47] | 200 nM |
| COc1cc(C(=O)C(=O)N2C3CCCC2C(=O)N(C[C@@H](CO)OCc2ccccc2)C3)cc(OC)c1OC (some centres unmarked) [Compound 50] | 560 nM |
| COc1cc(C(=O)C(=O)N2C3CCCC2C(=O)N(C(CO)COCc2ccccc2)C3)cc(OC)c1OC (centres unmarked) [Compound 51] | 4000 nM |
| COc1cc(C(=O)C(=O)N2C3CCCC2C(=O)N(C(COCc2ccccc2)COC(C)=O)C3)cc(OC)c1OC (centres unmarked) [Compound 53] | 5000 nM |
| CC(C)[C@@H]1CC[C@@H](C)[C@](C)(C(=O)C(=O)N2C3CCCC2C(=O)N(CCOCc2ccccc2)C3)C1 (some centres unmarked) [Compound 54] | 6000 nM |
| CCC(C)(C)C(=O)C(=O)N1C2CCCC1C(=O)N(C1CCCCC1)C2 (centres unmarked) [Compound 57] | 74000 nM |
| CCC(C)(C)C(=O)C(=O)N1C2CCCC1C(=O)N(C[C@H](CO)OCc1ccccc1)C2 (some centres unmarked) [Compound 58] | 3000 nM |
| CCC(C)(C)C(=O)C(=O)N1C2CCCC1C(=O)N(C[C@@H](CO)OCc1ccccc1)C2 (some centres unmarked) [Compound 59] | 3800 nM |
| CC(=O)OCC(C)(C)C(=O)C(=O)N1C2CCCC1C(=O)N(CCCCc1ccccc1)C2 (centres unmarked) [Compound 60] | 3000 nM |
| CCC(CC)(COC(C)=O)C(=O)C(=O)N1C2CCCC1C(=O)N(CCCCc1ccccc1)C2 (centres unmarked) [Compound 61] | 790 nM |
| CC(=O)OCC1(C(=O)C(=O)N2C3CCCC2C(=O)N(CCCCc2ccccc2)C3)CCCC1 (centres unmarked) [Compound 62] | 160 nM |
| COCOCC(C)(C)C(=O)C(=O)N1C2CCCC1C(=O)N(CCCCc1ccccc1)C2 (centres unmarked) [Compound 63] | 3100 nM |

| Compound | Ki |
| --- | --- |
| CCC(CC)C(=O)C(=O)N1C2CCCC1C(=O)N(CCCCc1ccccc1)C2 (centres unmarked) [Compound 68] | 2500 nM |
| CCC(C)(C)C(=O)C(=O)N1C2CCCC1C(=O)N(C1CCCC1)C2 (centres unmarked) [Compound 69] | 33000 nM |
| C=CCC(CC=C)C(=O)OC[C@H](CN1CC2CCCC(C1=O)N2C(=O)C(=O)C(C)(C)CC)OCc1ccccc1 (some centres unmarked) [Compound 70] | 890 nM |
| COc1cc(C(=O)C(=O)N2C3CCCC2C(=O)N([C@H]2CCC[C@@H]2OCc2ccccc2)C3)cc(OC)c1OC (some centres unmarked) [Compound 71] | 4700 nM |
| COc1cc(C(=O)C(=O)N2C3CCCC2C(=O)N([C@H]2CCC[C@@H]2OCc2ccccc2)C3)cc(OC)c1OC (some centres unmarked) [Compound 72] | 240 nM |
| C=CCC(CC=C)C(=O)OC[C@H](CN1CC2CCCC(C1=O)N2C(=O)C(=O)c1cc(OC)c(OC)c(OC)c1)OCc1ccccc1 (some centres unmarked) [Compound 73] | 63 nM |
| COc1ccc2c(c1)C(OC)C1C3CCCC(C(=O)N1C2)N3C(=O)C(=O)c1cc(OC)c(OC)c(OC)c1 (centres unmarked) [Compound 74] | 111 nM |
| C=CCC(CC=C)C(=O)OC[C@@H](CN1CC2CCCC(C1=O)N2C(=O)C(=O)C(C)(C)CC)OCc1ccccc1 (some centres unmarked) [Compound 75] | 790 nM |
| C=CCC(CC=C)C(=O)OC[C@@H](CN1CC2CCCC(C1=O)N2C(=O)C(=O)c1cc(OC)c(OC)c(OC)c1)OCc1ccccc1 (some centres unmarked) [Compound 76] | 112 nM |
| CCC(C)(C)C(=O)C(=O)N1C2CCCC1C(=O)N([C@H]1CCC[C@@H]1OCc1ccccc1)C2 (some centres unmarked) [Compound 77] | 20500 nM |
| CCC(C)(C)C(=O)C(=O)N1C2CCCC1C(=O)N([C@H]1CCC[C@@H]1OCc1ccccc1)C2 (some centres unmarked) [Compound 78] | 4100 nM |
| CCOC1C2CCCC(C(=O)N1Cc1ccc(OC)cc1)N2C(=O)C(=O)c1cc(OC)c(OC)c(OC)c1 (centres unmarked) [Compound 79] | 700 nM |
| COc1ccc(CN2C(=O)C3CCCC(C2C#N)N3C(=O)C(=O)c2cc(OC)c(OC)c(OC)c2)cc1 (centres unmarked) [Compound 80] | 1800 nM |
| CCC(CC)(COC(=O)COC)C(=O)C(=O)N1C2CCCC1C(=O)N(CCCCc1ccccc1)C2 (centres unmarked) [Compound 81] | 1100 nM |
| COc1ccc2c(c1)C1C3CCCC(C(=O)N1CC2)N3C(=O)C(=O)C1(COC(C)=O)CCCC1 (centres unmarked) [Compound 82] | 3000 nM |
| CCC(CC)(COCOC)C(=O)C(=O)N1C2CCCC1C(=O)N(CCCCc1ccccc1)C2 (centres unmarked) [Compound 83] | 860 nM |
| COCC(=O)OCC1(C(=O)C(=O)N2C3CCCC2C(=O)N(CCCCc2ccccc2)C3)CCCC1 (centres unmarked) [Compound 84] | 134 nM |
| COCOCC1(C(=O)C(=O)N2C3CCCC2C(=O)N(CCCCc2ccccc2)C3)CCCC1 (centres unmarked) [Compound 85] | 324 nM |
| CC(=O)OCC1(C(=O)C(=O)N2C3CCCC2C(=O)N(CCCCc2ccccc2)C3)CCCCC1 (centres unmarked) [Compound 86] | 1300 nM |
| CCC(C)(C)C(=O)C(=O)N1C2CCCC1C1c3cccc(OC)c3CCN1C2=O (centres unmarked) [Compound 87] | 5000 nM |
| O=C1C2CCCC(CN1CCCCc1ccccc1)N2C(=O)C(=O)C1(O)CCCC1 (centres unmarked) [Compound 95] | 1200 nM |
| COc1cc(C(=O)C(=O)N2C3CCCC2C2OCCN2C3=O)cc(OC)c1OC (centres unmarked) [Compound 96] | 1400 nM |
| CCC(C)(C)C(=O)C(=O)N1C2CCCC1[C@@H]1OCCN1C2=O (some centres unmarked) [Compound 97] | 9000 nM |
| COCCOC1(C(=O)C(=O)N2C3CCCC2C(=O)N(CCCCc2ccccc2)C3)CCCC1 (centres unmarked) [Compound 98] | 772 nM |
| CO[C@@H](C)[C@@H]1CC[C@@H](C)[C@](O)(C(=O)C(=O)N2C3CCCC2C(=O)N(CCCCc2ccccc2)C3)C1 (some centres unmarked) [Compound 99] | 3700 nM |
